From US10703765B2 (priority 2014, dated 2020) come the findings set out here.

Counter-ions that a name gives are not always drawn.

One experiment deals with human σ1 receptor (Homo sapiens, UniProt Q99720). Description: biochemical. It is filed as binding. Set-up: μ and σ1 dual binding: key to the marks not given beside the values.
Chain of human σ1 receptor (Q99720 whole entry): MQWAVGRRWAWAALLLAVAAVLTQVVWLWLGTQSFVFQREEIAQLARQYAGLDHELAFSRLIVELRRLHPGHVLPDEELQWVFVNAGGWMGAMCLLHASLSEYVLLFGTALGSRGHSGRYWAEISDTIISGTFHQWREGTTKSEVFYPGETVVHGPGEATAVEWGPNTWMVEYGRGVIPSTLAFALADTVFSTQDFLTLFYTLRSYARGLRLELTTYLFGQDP
Settings: not given
In turn, `COCCC=C1OC2(CCN(CCc3ccccc3)CC2)CN(c2ccccc2F)C1=O` [Example 142, 4-(2-fluorophenyl)-2-(3-methoxypropylidene)-9-phenethyl-1-oxa-4,9-diazaspiro[5.5]undecan-3-one] had a Ki of less than 500 nM.

With `CC1OC2(CCN(CCc3ccccc3)CC2)CN(c2ccc(O)cc2)C1=O` (stereo not shown) [Example 293, 4-(4-hydroxyphenyl)-2-methyl-9-phenethyl-1-oxa-4,9-diazaspiro[5.5]undecan-3-one], the “μ and σ1 dual binding” value is listed as “++”.

`CC(=O)Nc1cccc(CCN2CCC3(CC2)CN(c2ccccc2)C(=O)C2(CC2)O3)c1` [Example 246, N-[3-(2-{13-oxo-12-phenyl-4-oxa-8,12-diazadispiro[2.1.5.3]tridecan-8-yl}ethyl)phenyl]acetamide] showed a Ki of less than 500 nM.

In turn, `COCC1CN(c2ccccc2)CC2(CCN(CCc3ccccc3)CC2)O1` (stereo not shown) [Example 319, 2-(methoxymethyl)-9-phenethyl-4-phenyl-1-oxa-4,9-diazaspiro[5.5]undecane hydrochloride] registered a Ki of less than 500 nM.

Take `COCC1OC2(CCN(CCc3ccccn3)CC2)CN(c2ccccc2F)C1=O.Cl` (stereo not shown) [Example 134, 4-(2-fluorophenyl)-2-(methoxymethyl)-9-(2-(pyridin-2-yl)ethyl)-1-oxa-4,9-diazaspiro[5.5]undecan-3-one hydrochloride]: the “μ and σ1 dual binding” value is “++”.

As for `CC1OC2(CCN(CCc3ccccc3)CC2)CN(c2ccccn2)C1=O.Cl` (stereo not shown) [Example 196, 2-methyl-9-phenethyl-4-(pyridin-2-yl)-1-oxa-4,9-diazaspiro[5.5]undecan-3-one hydrochloride], the “μ and σ1 dual binding” value is listed as “++”.

With `CC1OC2(CCN(CCc3ccccc3)CC2)CN(c2ccncc2)C1=O.Cl` (stereo not shown) [Example 205, 2-methyl-9-phenethyl-4-(pyridin-4-yl)-1-oxa-4,9-diazaspiro[5.5]undecan-3-one hydrochloride], the “μ and σ1 dual binding” value is on record as “++”.

`CC1OC2(CCN(CCc3cccc(F)n3)CC2)CN(c2ccccc2F)C1=O` (stereo not shown) [Example 89, 4-(2-fluorophenyl)-9-(2-(6-fluoropyridin-2-yl)ethyl)-2-methyl-1-oxa-4,9-diazaspiro[5.5]undecan-3-one hydrochloride] gave a Ki of less than 500 nM.

Take `CC(C)C1OC2(CCN(CCc3csc(N)n3)CC2)CN(c2ccccc2F)C1=O` (stereo not shown) [Example 306, 9-(2-(2-aminothiazol-4-yl)ethyl)-4-(2-fluorophenyl)-2-isopropyl-1-oxa-4,9-diazaspiro[5.5]undecan-3-one dihydrochloride]: the “μ and σ1 dual binding” value is given as “++”.

`CC1OC2(CCN(CCc3ccccc3)CC2)CN(c2cscn2)C1=O` (stereo not shown) [Example 88, 2-methyl-9-phenethyl-4-(thiazol-4-yl)-1-oxa-4,9-diazaspiro[5.5]undecan-3-one hydrochloride]: the Ki was less than 500 nM.

On to `CC1OC2(CCN(CCc3ncccc3Cl)CC2)CN(c2cnccc2C(F)(F)F)C1=O.Cl` (stereo not shown) [Example 44, 9-(2-(3-chloropyridin-2-yl)ethyl)-2-methyl-4-(4-(trifluoromethyl)pyridin-3-yl)-1-oxa-4,9-diazaspiro[5.5]undecan-3-one hydrochloride], for which the “μ and σ1 dual binding” value is recorded as “++”.

For `CC1OC2(CCN(CCc3ncccc3Cl)CC2)CN(c2ccccc2)C1=O` (stereo not shown) [Example 37, 9-(2-(3-chloropyridin-2-yl)ethyl)-2-methyl-4-phenyl-1-oxa-4,9-diazaspiro[5.5]undecan-3-one hydrochloride], the Ki is less than 500 nM.

Staying with this experiment, now noted: combined class from Ki-σ1 (human σ1 receptor, A1) and Ki-μ (human μ-opioid receptor, A2) radioligand binding.
Turning to `CC(C)OCCN1CCC2(CC1)CN(Cc1ccc(C(F)(F)F)cn1)C(=O)C(C)O2` (stereo not shown) [Example 125, 9-(2-isopropoxyethyl)-2-methyl-4-((5-(trifluoromethyl)pyridin-2-yl)methyl)-1-oxa-4,9-diazaspiro[5.5]undecan-3-one], the “μ and σ1 dual binding” value is given as “++”.

Turning to `CC1OC2(CCN(CCc3ccc(NS(C)(=O)=O)cc3)CC2)CN(c2ccccc2)C1=O` (stereo not shown) [Example 258, N-(4-(2-(2-methyl-3-oxo-4-phenyl-1-oxa-4,9-diazaspiro[5.5]undecan-9-yl)ethyl)phenyl)methanesulfonamide], the “μ and σ1 dual binding” value was “++”.

The experiment is the same for the next values; noted with them: read-out: μ and σ1 dual binding.
On to `CC1OC2(CCN(CCc3ccccc3)CC2)CN(Cc2ccc(F)cc2)C1=O` (stereo not shown) [Example 158, 4-(4-fluorobenzyl)-2-methyl-9-phenethyl-1-oxa-4,9-diazaspiro[5.5]undecan-3-one hydrochloride], for which the Ki is less than 100 nM.

On to `O=C1COC2(CCN(CCc3ccccc3O)CC2)CN1c1ccccc1` [Example 289, 9-(2-hydroxyphenethyl)-4-phenyl-1-oxa-4,9-diazaspiro[5.5]undecan-3-one], for which the Ki was less than 500 nM.

For `O=C1COC2(CCN(CCc3ccccc3)CC2)CN1c1ccccc1` [Example 5, 9-phenethyl-4-phenyl-1-oxa-4,9-diazaspiro[5.5]undecan-3-one], the Ki is less than 500 nM.

As for `CC1OC2(CCN(CCc3ccccc3)CC2)CN(c2cccnc2)C1=O` (stereo not shown) [Example 194, 2-methyl-9-phenethyl-4-(pyridin-3-yl)-1-oxa-4,9-diazaspiro[5.5]undecan-3-one hydrochloride], the Ki is less than 500 nM.

On to `CC1OC2(CCN(CC(=O)N3CCCCC3)CC2)CN(c2ccccc2)C1=O` (stereo not shown) [Example 129, 2-methyl-9-(2-oxo-2-(piperidin-1-yl)ethyl)-4-phenyl-1-oxa-4,9-diazaspiro[5.5]undecan-3-one], for which the Ki was greater than 500 nM.

Turning to `CC1OC2(CCN(CCc3ccccc3)CC2)CN(c2cccnc2C(F)(F)F)C1=O` (stereo not shown) [Example 215, 2-methyl-9-phenethyl-4-(2-(trifluoromethyl)pyridin-3-yl)-1-oxa-4,9-diazaspiro[5.5]undecan-3-one hydrochloride], the Ki is less than 500 nM.

Regarding `O=C1N(Cc2ccc(C(F)(F)F)cn2)CC2(CCN(CCc3ccccc3)CC2)OC12CC2` [Example 187, 8-phenethyl-12-{[5-(trifluoromethyl)pyridin-2-yl]methyl}-4-oxa-8,12-diazadispiro[2.1.5.3]tridecan-13-one dihydrochloride], the Ki was less than 100 nM.

Consider `COC(=O)CCN1CCC2(CC1)CN(c1ccccc1)C(=O)C1(CC1)O2` [Example 348, methyl 3-(13-oxo-12-phenyl-4-oxa-8,12-diazadispiro[2.1.5.3]tridecan-8-yl)propanoate], for which the Ki was greater than 500 nM.

In the case of `CC1OC2(CCN(CCc3ccccn3)CC2)CN(c2ccccc2)C1=O` (stereo not shown) [Example 58, 2-methyl-4-phenyl-9-(2-(pyridin-2-yl)ethyl)-1-oxa-4,9-diazaspiro[5.5]undecan-3-one], the Ki was less than 100 nM.

Turning to `CC1OC2(CCN(CCc3ccc(C(F)(F)F)cn3)CC2)CN(c2ccccc2)C1=O` (stereo not shown) [Example 34, 2-methyl-4-phenyl-9-(2-(5-(trifluoromethyl)pyridin-2-yl)ethyl)-1-oxa-4,9-diazaspiro[5.5]undecan-3-one hydrochloride], the Ki was greater than 500 nM.

Consider `CC1OC2(CCN(CCc3ccccc3)CC2)CN(Cc2ncccc2F)C1=O` (stereo not shown) [Example 173, 4-((3-fluoropyridin-2-yl)methyl)-2-methyl-9-phenethyl-1-oxa-4,9-diazaspiro[5.5]undecan-3-one], for which the Ki was less than 100 nM.

With `C[C@@H]1OC2(CCN(CCc3ccccc3)CC2)CN(c2ccccc2)C1=O` [Example 10b, (S)-2-methyl-9-phenethyl-4-phenyl-1-oxa-4,9-diazaspiro[5.5]undecan-3-one], the Ki is less than 100 nM.

Turning to `O=C1N(c2ccccc2F)CC2(CCN(CCc3ccccc3)CC2)OC12CC2` [Example 224, 12-(2-fluorophenyl)-8-phenethyl-4-oxa-8,12-diazadispiro[2.1.5.3]tridecan-13-one], the Ki is less than 100 nM.

Take `CC(=O)Nc1cccc(CCN2CCC3(CC2)CN(c2ccccc2)C(=O)[C@H](C)O3)c1` [Example 244a, (S)-N-(3-(2-(2-methyl-3-oxo-4-phenyl-1-oxa-4,9-diazaspiro[5.5]undecan-9-yl)ethyl)phenyl)acetamide hydrochloride]: the Ki was less than 500 nM.
